Results published in patent US10045985B2, “Heteroaryl compounds as BTK inhibitors and uses thereof” (Merck Patent GmbH, priority 2015, dated 2018).

Tests used:
[1] = target: T1, full-length human BTK (Homo sapiens, UniProt Q06187); test: Assay A: microfluidic off-chip mobility shift assay for potency against BTK enzyme; assay type: biochemical; details: 90 min at 27° C.
T1 construct: full-length human BTK (08-080) from CarnaBio USA, Inc; purchased CarnaBio USA, Inc., Natick, Mass; 08-080
Text: Assay A: Microfluidic Off-Chip Mobility Shift Assay Protocol for Potency Assessment Against BTK Enzyme
The protocol below describes microfluidic, off-chip mobility shift kinase assay to measure inherent potency of compounds against BTK enzyme. The mechanics of the assay platform are best described by the vendor (Caliper Life Sciences, a PerkinElmer Company, Hopkinton, Mass.) on their website at the following URL:
Briefly, 2.5× stocks of full-length human BTK (08-080) from CarnaBio USA, Inc., Natick, Mass., 1.6×ATP and appropriate kinKDR peptide substrate (FITC-AHA-EEPLYWSFPAKKK-NH2; developed in-house) were prepared in kinase reaction buffer consisting of 25 mM MgCl2, 0.015% Brij-35 (30%), 100 mM Hepes, pH 7.5, and 10 mM DTT.
5 uL of enzyme buffer and 7.5 uL of ATP/kinKDR peptide substrate mix were added to Matrix (#115304) 384-well, sterile, polypropylene plates (Thermo Fisher Scientific, Hudson, N.H.) with 125 nL of serially diluted compounds prepared in 100% DMSO, and incubated for 90 min. at 27° C. following the incubation period, reactions were stopped by adding 60 uL stop buffer consisting of 100 mM Hepes, pH 7.5, 0.015% Brij-35 (30%), 0.277% Coating Reagent #3 (Caliper Life Sciences, Mountain View, Calif.), 5% DMSO. Stopped reactions were monitored at −2 PSI, −3000 V/−700 V in a LabChip 3000 plate reader from Caliper Life Sciences, a PerkinElmer Company (Hopkinton, Mass.), and the activity was measured by off-chip mobility shift assay measuring the charge/mass difference between substrate and product resulting from peptide phosphorilation. IC50 and efficacy were determined by plotting log [Inhibitor] vs. % Activity in GeneData Screener (Basel, Switzerland).

[2] = target: T2, BTK C481S enzyme (His-TEV-hsBTK(328-659)(C481S)) (Homo sapiens, UniProt Q06187, C481S); test: Assay B: microfluidic off-chip mobility shift assay for potency against BTK C481S enzyme; assay type: biochemical; details: 90 min at 25° C.
T2 construct: His-TEV-hsBTK(328-659)(C481S); His (N); TEV cleavage site (N)
Text: Assay B: Microfluidic Off-Chip Mobility Shift Assay Protocol for Potency Assessment Against BTK C481S Enzyme
The protocol below describes a microfluidic, off-chip mobility shift kinase assay to measure inherent potency of compounds against BTK C481S enzyme. The mechanics of the assay platform are described by the vendor (PerkinElmer, Hopkinton, Mass.) on their website at the following URL: http://caliperls.com.
Briefly, 2.5× stocks of His-TEV-hsBTK(328-659)(C481S) from the Merck Serono Protein Purification Laboratory in Darmstadt, Germany (PCS, Q27/234), 1.6×ATP and appropriate KinKDR peptide substrate (FITC-AHA-EEPLYWSFPAKKK-NH2; Tufts University Core Facility custom synthesis) were prepared in kinase reaction buffer consisting of 25 mM MgCl2, 0.015% Brij-35 (30%), 100 mM HEPES, pH 7.5, and 10 mM DTT.
5 uL of enzyme buffer and 7.5 uL of ATP/KinKDR peptide substrate mix were added to Matrix (#4315) 384-well, sterile, flat-bottom polypropylene plates (Thermo Fisher Scientific, Hudson, N.H.) with 125 nL of serially diluted compounds prepared in 100% DMSO, and incubated for 90 min. at 25° C. Following the incubation period, reactions were terminated by adding 65 uL quench buffer consisting of 100 mM HEPES, pH 7.5, 0.015% Brij-35 (30%), 0.277% Coating Reagent #3 (PerkinElmer, Mountain View, Calif.), 5% DMSO. Terminated reactions were monitored at −2 PSI, −3000 V/−700 Volts in a LabChip 3000 plate reader from Caliper Life Sciences, a PerkinElmer Company (Hopkinton, Mass.), and the activity was quantified by laser-induced fluorescence measuring the charge/mass difference between substrate and product resulting from peptide phosphorylation. IC50 and efficacy were determined by plotting log [Inhibitor] vs. % Activity in GeneData Screener (Basel, Switzerland).

[3] = test system: anti-IgM-induced expression of CD69 in human peripheral blood mononuclear cells (PBMCs); test: Assay C: time dependent PMBC IC50 assay (anti-IgM-induced CD69 expression on CD19 positive cells); assay type: cell-based; details: PBMC, 1 h pre-treatment, anti-IgM overnight, CD69 on CD19 positive B cells
Text: Assay C: Time Dependent PMBC IC50 Assay
Btk is critical for mediating the signalling of B cell antigen receptor (BCR) after anti-IgM stimulation. Based on this principle, a functional cell-based assay was established to determine the potency of compounds at inhibiting anti-IgM-induced expression of CD69, a downstream BCR signaling event, in freshly isolated human peripheral blood mononuclear cells (PBMCs). In the assay, a 90 al PBMC suspension containing 2.5×10^5 cells was pre-treated with 10 al of test compound at various concentrations for an hour, and then incubated overnight (approximately 16-18 hours) with 5 μl 420 μg/ml affiniPure F(ab′)2 fragment goat anti-human IgM Fc fragment per well (Dianova, Cat. No.: 109-006-129). After the incubation, the cells were washed and immunostained with an APC-labeled mouse anti-human CD69 (BD Biosciences; clone: FN50), a PerCP-Cy5.5 labelled mouse anti-human CD19 (BD Biosciences; clone: SJ25C1) and a FITC-labelled mouse anti-human CD3 (BD Biosciences; clone: HIT3a), and fixed for flow cytometric analysis of CD69 expression on CD19 positive cells (B cells). The percentage of CD69 expressing CD19 positive cells was plotted against the concentrations of test compounds to obtain a concentration response curve, and calculate an IC50 value as a measure of the potency of test compounds in the assay.

T2 sequence (Q06187 328-659 C481S): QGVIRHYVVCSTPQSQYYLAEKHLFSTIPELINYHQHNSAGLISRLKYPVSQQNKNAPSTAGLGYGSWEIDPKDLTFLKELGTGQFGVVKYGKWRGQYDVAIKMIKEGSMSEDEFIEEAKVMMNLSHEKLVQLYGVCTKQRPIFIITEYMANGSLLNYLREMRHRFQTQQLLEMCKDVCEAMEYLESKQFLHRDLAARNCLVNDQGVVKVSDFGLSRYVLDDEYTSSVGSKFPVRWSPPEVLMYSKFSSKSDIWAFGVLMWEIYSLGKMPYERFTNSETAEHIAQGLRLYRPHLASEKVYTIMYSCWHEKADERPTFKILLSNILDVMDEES
T1 sequence (Q06187 whole entry): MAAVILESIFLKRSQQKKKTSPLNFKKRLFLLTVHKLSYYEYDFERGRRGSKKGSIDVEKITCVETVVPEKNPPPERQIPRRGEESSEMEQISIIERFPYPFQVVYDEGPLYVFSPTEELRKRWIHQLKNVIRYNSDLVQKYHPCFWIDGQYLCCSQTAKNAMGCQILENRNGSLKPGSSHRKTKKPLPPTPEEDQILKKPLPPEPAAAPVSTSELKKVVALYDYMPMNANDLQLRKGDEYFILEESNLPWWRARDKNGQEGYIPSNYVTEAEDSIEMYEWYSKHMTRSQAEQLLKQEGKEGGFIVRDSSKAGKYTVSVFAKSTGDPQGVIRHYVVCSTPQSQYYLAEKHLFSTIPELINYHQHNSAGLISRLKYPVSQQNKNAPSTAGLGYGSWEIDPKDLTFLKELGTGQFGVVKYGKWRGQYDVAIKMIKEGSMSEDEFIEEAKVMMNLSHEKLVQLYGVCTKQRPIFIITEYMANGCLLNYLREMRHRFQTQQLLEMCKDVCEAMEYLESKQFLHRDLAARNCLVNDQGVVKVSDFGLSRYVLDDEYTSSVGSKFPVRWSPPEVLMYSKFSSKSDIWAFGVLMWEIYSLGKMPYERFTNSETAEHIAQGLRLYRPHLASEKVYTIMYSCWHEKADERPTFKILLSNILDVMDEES

For `COCCOc1ccc(Nc2ncc(F)c(NC3CCCC(NC(=O)c4ccc(C(C)(C)C)cc4)C3O)n2)cc1` (racemic) [Compound 16, 4-(tert-butyl)-N-(3-((5-fluoro-2-((4-(2-methoxyethoxy)phenyl)amino)pyrimidin-4-yl)amino)-2-hydroxycyclohexyl)benzamide], the IC50 [1] was < 100 nM, the IC50 [2] was < 100 nM and the IC50 [3] was 1000 to 5000 nM.

For `COCCOc1ccc(Nc2ncc(F)c(NC3CCCC(NC(=O)c4ccc(C5CC5)cc4)C3)n2)cc1` (centres unmarked) [Compound 10, 4-cyclopropyl-N-(3-((5-fluoro-2-((4-(2-methoxyethoxy)phenyl)amino)pyrimidin-4-yl)amino)cyclohexyl)benzamide], the IC50 [1] was 100 to 1000 nM, the IC50 [2] was 100 to 1000 nM and the IC50 [3] was > 5000 nM.

For `COCCOc1ccc(Nc2ncc(F)c(NC3CCCC(NC(=O)c4cc5c(s4)CCCC5)C3O)n2)cc1` (racemic) [Compound 26], the IC50 [1] was < 100 nM and the IC50 [2] was < 100 nM.
